The subject of data set [1] is Histone deacetylase. Kind of data set: Inhibition of HDAC in human 697 cells assessed as increase in H3 acetylation at 1000 nM incubated for 16 hrs by ELISA. Conditions: human, 697, 16 h, 1 µM; call rule not given here. The class given is cell-based. (An ELISA detects its analyte on a solid surface through an enzyme-linked reagent.)
Data set [2] can be described thus: Selectivity ratio of IC50 for C-terminal GST-tagged human HDAC5 to IC50 for human N-terminal GST-tagged HDAC6 expressed in baculovirus infected sf9 insect cells.
Data set [3] in a line: Selectivity ratio of IC50 for C-terminal His-tagged human HDAC8 expressed in baculovirus infected sf9 insect cells to IC50 for human N-terminal GST-tagged HDAC6 expressed in baculovirus infected sf9 insect cells.
The nature of data set [4]: Stability in rat plasma assessed as parent compound remaining at 100 uM after 4 hrs by LC-MS/MS analysis. The following applies: read-out: Stability. The class given is ADME, cell-free.
A short description of data set [5]: Stability in human plasma assessed as parent compound remaining at 100 uM after 4 hrs by LC-MS/MS analysis. The data set is classed as ADME, cell-free. Conditions: read-out: Stability.
The subject of data set [6] is Mus musculus. Kind of data set: In vivo inhibition of HDAC6 in C57BL/6 mouse assessed as increase in acetylated tubulin level in spleen cytosolic protein extract at 30 mg/kg, ip measured after 60 mins by ELISA relative to control. The data set is classed as functional.
Data set [7] deals with Mus musculus. Put plainly: In vivo inhibition of HDAC in C57BL/6 mouse assessed as increase in acetylated-histone H3 level in spleen nuclear protein extracts at 30 mg/kg, ip measured after 60 mins by sandwich ELISA relative to control. The following applies: 1 h. The data set is classed as organism-based.
Data set [8] concerns Mus musculus. Put plainly: Ratio of in vivo inhibition of HDAC6 in C57BL/6 mouse assessed as fold increase in acetylated tubulin level in spleen cytosolic protein extract to in vivo inhibition of HDAC in C57BL/6 mouse assessed as fold increase in acetylated-histone H3 level in spleen nuclear protein extracts.
Data set [9] concerns PBMC. Put plainly: Cytotoxicity against human PBMC cells after 72 hrs by CellTiter 96 aqueous one solution assay. The class given is cell-based.
The nature of data set [10]: Toxicity in C57BL/6 mouse assessed as effect on body weight at 50 mg/kg, ip administered for 5 days/week for two cycles and measured every other day relative to control. The class given is organism-based. Conditions: in vivo, 120 h.
A short description of data set [11]: Toxicity in C57BL/6 mouse assessed as effect on platelet level at 10 mg/kg, ip administered for 5 days/week for two cycles and measured 60 mins post last dose by cell counter method relative to control. The class given is organism-based. The following applies: in vivo, 1 h.
Data set [12] can be described thus: Toxicity in C57BL/6 mouse assessed as effect on platelet level at 30 mg/kg, ip administered for 5 days/week for two cycles and measured 60 mins post last dose by cell counter method relative to control. The following applies: in vivo, 1 h. The class given is organism-based.
Data set [13] in a line: Toxicity in C57BL/6 mouse assessed as effect on platelet level at 50 mg/kg, ip administered for 5 days/week for two cycles and measured 60 mins post last dose by cell counter method relative to control. Conditions: in vivo, 1 h. The class given is organism-based.
Data set [14] is described as follows: Toxicity in C57BL/6 mouse assessed as effect on WBC level at 30 mg/kg, ip administered for 5 days/week for two cycles and measured 60 mins post last dose by beckman coulter counting method relative to control. The class given is organism-based. The following applies: in vivo, 1 h.
Data set [15] can be described thus: Toxicity in C57BL/6 mouse assessed as effect on WBC level at 50 mg/kg, ip administered for 5 days/week for two cycles and measured 60 mins post last dose by beckman coulter counting method relative to control. The class given is organism-based. Conditions: in vivo, 1 h.
A short description of data set [16]: Toxicity in C57BL/6 mouse assessed as effect on postural changes up to 50 mg/kg, ip administered for 5 days/week for two cycles and measured daily starting from day 1. The following applies: in vivo, 120 h. The data set is classed as organism-based.
A short description of data set [17]: Toxicity in C57BL/6 mouse assessed as inactivity/hyperactivity up to 50 mg/kg, ip administered for 5 days/week for two cycles and measured daily starting from day 1. The class given is organism-based. Conditions: in vivo, 120 h.
The nature of data set [18]: Toxicity in C57BL/6 mouse assessed as induction of piloerection up to 50 mg/kg, ip administered for 5 days/week for two cycles and measured daily starting from day 1. The data set is classed as organism-based. Conditions: in vivo, 120 h.
Data set [19] in a line: Toxicity in C57BL/6 mouse assessed as induction of diarrhea up to 50 mg/kg, ip administered for 5 days/week for two cycles and measured daily starting from day 1. The class given is organism-based. Conditions: in vivo, 120 h.
A short description of data set [20]: Total clearance in CD-1 mouse at […], iv measured within 6 hrs by LC-MS/MS analysis. The data set is classed as ADME, organism-based. Conditions: in vivo.
A short description of data set [21]: Apparent volume of distribution at steady state in CD-1 mouse at […], iv measured within 6 hrs by LC-MS/MS analysis. The data set is classed as ADME, organism-based. The following applies: in vivo, read-out: Vdss(app).
Data set [22] can be described thus: Oral bioavailability in CD-1 mouse at 5.2 mg/kg measured within 6 hrs by LC-MS/MS analysis. Conditions: in vivo. The class given is ADME, organism-based.
A short description of data set [23]: Cmax in CD-1 mouse at 5.2 mg/kg, po measured within 6 hrs by LC-MS/MS analysis. The data set is classed as ADME, organism-based. Conditions: in vivo. More on the design: dose 5.2 mg/kg, route oral.
Data set [24] in a line: Inhibition of C57BL/6 mouse effector T cells proliferation at 1 uM after 72 hrs in absence of regulatory T cells by CFSE dye based flow cytometric assay relative to control. (In flow cytometry, cells or beads pass a laser one at a time.)

This note sets out measurements from ChEMBL document CHEMBL4414648, “Novel Benzohydroxamate-Based Potent and Selective Histone Deacetylase 6 (HDAC6) Inhibitors Bearing a Pentaheterocyclic Scaffold: Design, Synthesis, and Biological Evaluation” (J Med Chem, 2019).

Broadly, the IC50 is the concentration at which inhibition is half-maximal. Read a low IC50 as inhibition by little substance. Usually clearance stands for a measure of how efficiently the substance is removed, as volume per time. Broadly, the bioavailability is the share of a dose that reaches the circulation, judged against a reference dose that is usually intravenous. Low values mean little systemic uptake, high ones much systemic uptake. As usually defined, the Cmax is the highest concentration seen after dosing. As usually defined, the inhibition is the drop in the measured response relative to a control, in per cent. Low values mean a response near the control, high ones a response far below the control.

Structures are written as SMILES. Some results are limits rather than exact numbers.

As for `Cn1c(Sc2ccc(C(=O)NO)cc2)nnc1-c1cccs1`, the “inhibition (INH)” value in data set [1] is reported as “Active”. Further, the “Ratio IC50” value in data set [2] turned out to be 326; in [3] it was 62. Further, the remaining at 4 h, 100 µM in [4] was 86%; in [5] it was 100%. Also, the “fold change (FC)” value in data set [6] is recorded as 10; in [7] it was 3. Moreover, the Ratio in data set [8] worked out at 3.5. The compound further returned an IC50 in data set [9] greater than 1000 nM. Also, the Activity in data set [10] was 3.5%; in data set [11], -11%; in data set [12] it was -2%; in data set [13], -8%; in data set [14], -34%; in [15] it was -30%. Besides, the Activity entry in data set [16], in [17], in data set [18] and in [19] was “Non-Toxic” throughout. This compound also gave a clearance at 6 h in data set [20] of 182 mL/min/kg. Also, in data set [21], the Vd at 6 h worked out at 5.4 L/kg. In data set [22], this compound displayed a bioavailability of 26%. Also, in data set [23], the Cmax came to 144 ng/mL. The compound further registered an inhibition at 72 h, 1 µM in [24] of less than 5%.
